Data set [1] in a line: Molar enthalpy of transition or fusion. Conditions: Crystal; DSC.
The conditions of data set [2]: Crystal; DTA.

Where “and” joins values, the source holds several entries; their conditions need not be identical. Identical values can stand only once. ± gives the expanded uncertainty stated by the source.

Regarding `C=C(C)[C@@H]1CC[C@]2(CO)CC[C@]3(C)[C@H](CC[C@@H]4[C@@]5(C)CC[C@H](O)C(C)(C)[C@@H]5CC[C@]43C)[C@@H]12` [betulin], the “Molar enthalpy of transition or fusion” value in data set [1] was 12.4 kcal/mol and 12.8 kcal/mol and 13.2 kcal/mol. In data set [2], the Normal melting temperature was 257.5 ± 2 °C and 255.0 ± 2 °C and 254.8 ± 2 °C.

The values above are taken from the NIST ThermoML archive (doi:10.1016/j.fluid.2008.02.013).
